Source: patent EP0607129B1, “METHYLPIPERAZINOAZEPINE DERIVATIVES, THEIR PREPARATION AND USE” ("THERABEL RESEARCH SA/NV", priority 1991, dated 1993)

Legend:
[1] = Catalepsy test (extrapyramidal side effects); type: in vivo; conditions: for léger / faible effet cataleptique à partir de: dose from which a slight (léger, faible) cataleptic effect is seen; for catalepsie pour des doses supérieures à: dose above which catalepsy is seen
Description: Voir notamment GRAY W.D., OSTERBERG A.C., RAUH C.E., Arch. Int. Pharmacodyn. 134, 198, 1961 et COSTALL B., OLLEY J.E., Neuropharmacology 10, 297, 1971.
Ce test est représentatif des effets extrapyramidaux présents dans de nombreux neuroleptiques (effet secondaire non souhaitable). Les composés de l'invention provoquent très peu de catalepsie et paraissent donc dénués de cet effet secondaire non souhaitable.

apomorphine = experiment: In vivo apomorphine antagonism test
récepteurs muscariniques = test system: récepteurs muscariniques; design: species or system rat CFY; conditions: 1,5 nM (³H) QNB; rat brain homogenate without cerebellum; 25°C, 60 minutes; non-specific binding with atropine 10⁻⁵M; test concentration not given
[2] = graded + to +++++, 20 mg/kg for the compounds

CN1CCN(C2=Nc3cc(Cl)ccc3Nc3ccccc32)CC1 [Clozapine, reference compound]
léger / faible effet cataleptique à partir de [1]: ≥ 20 mg/kg
Test d'antagonisme a l'apomorphine: intensité de l'activité (apomorphine; clozapine at 20 mg/g (so in the source)): +

O=C(CCCN1CCC(O)(c2ccc(Cl)cc2)CC1)c1ccc(F)cc1 [Halopéridol, reference compound]
Test d'antagonisme a l'apomorphine: intensité de l'activité (apomorphine; halopéridol at 0,63 mg/kg): +++++

CN1CCN(C2=Nc3cccnc3Sc3ccc(Cl)cc32)CC1.O=C(O)/C=C/C(=O)O [Exemple 3, Fumaratede 8-chloro-6-(4-méthylpipérazin-1-yl)pyrido(2,3-b)benzo-1,4-thiazépine]
catalepsie pour des doses supérieures à [1]: > 40 mg/kg

CN1CCN(C2=Nc3cc(Cl)ccc3Oc3ncccc32)CC1.O=C(O)/C=C/C(=O)O [Exemple 5, Fumaratede 8-chloro-5-(4-méthylpipérazin-1-yl)pyrido(2,3-b)benzo-1,5-oxazépine]
Test d'antagonisme a l'apomorphine: intensité de l'activité (apomorphine; [2]): +

CN1CCN(C2=Nc3ccccc3Nc3ccncc32)CC1 [Exemple 1, 11-(4-méthylpipérazin-1-yl)-5H-pyrido(4,3-b)benzo-1,5-diazépine]
Inhibition, % (binding de ³H QNB) (récepteurs muscariniques): 4,48%
catalepsie pour des doses supérieures à [1]: > 40 mg/kg

CN1CCN(C2=Nc3cccnc3Nc3ccc(Cl)cc32)CC1 [Exemple 10, 8-chloro-6-(4-méthylpipérazin-1-yl)-11H-pyrido(2,3-b)benzo-1,4-diazépine]
Inhibition, % (binding de ³H QNB) (récepteurs muscariniques): 62,08%

CN1CCN(C2=Nc3ccccc3Sc3ccc(Cl)cc32)CC1 [Clothiapine, reference compound]
Inhibition, % (binding de ³H QNB) (récepteurs muscariniques): 38,05%

CN1CCN(C2=Nc3cccnc3Nc3ccc(F)cc32)CC1 [Exemple 13, 8-fluoro-6-(4-méthylpipérazin-1-yl)-11H-pyrido(2,3-b)benzo-1,4-diazépine]
Test d'antagonisme a l'apomorphine: intensité de l'activité (apomorphine; [2]): +

Cc1ccc2c(c1)C(N1CCN(C)CC1)=Nc1cccnc1N2 [Exemple 11, 6-(4-méthylpipérazin-1-yl)-8-méthyl-11H-pyrido(2,3-b)benzo-1,4-diazépine]
Inhibition, % (binding de ³H QNB) (récepteurs muscariniques): 67,3%

CN1CCN(C2=Nc3cccnc3Oc3ccccc32)CC1.O=C(O)/C=C/C(=O)O [Exemple 7, Fumaratede 6-(4-méthylpipérazin-1-yl)pyrido(2,3-b)benzo-1,4-oxazépine]
Test d'antagonisme a l'apomorphine: intensité de l'activité (apomorphine; [2]): +

CN1CCN(C2=Nc3cccnc3N(C=O)c3ccccc32)CC1 [Exemple 17, 11-formyl-6-(4-méthylpipérazin-1-yl)-11H-pyrido(2,3-b)benzo-1,4-diazépine]
Inhibition, % (binding de ³H QNB) (récepteurs muscariniques): 43,38%

CN1CCN(C2=Nc3cccnc3Nc3cc(Cl)ccc32)CC1 [Exemple 12, 9-chloro-6-(4-méthylpipérazin-1-yl)-11H-pyrido(2,3-b)benzo-1,4-diazépine]
Test d'antagonisme a l'apomorphine: intensité de l'activité (apomorphine; [2]): +

CN1CCN(C2=Nc3cnccc3Sc3ccccc32)CC1 [Exemple 18, 10-(4-méthylpipérazin-1-yl)pyrido(4,3-b)benzo-1,4-thiazépine]
Inhibition, % (binding de ³H QNB) (récepteurs muscariniques): 57,61%

CN1CCN(C2=Nc3ccccc3Oc3ncccc32)CC1.O=C(O)/C=C\C(=O)O [Exemple 4, Maléatede 5-(4-méthylpipérazin-1-yl)pyrido(2,3-b)benzo-1,5-oxazépine]
léger / faible effet cataleptique à partir de [1]: ≥ 20 mg/kg
